In test [1] the target is T1, factor XIIa (Homo sapiens, UniProt P00748). The test is described as follows: Inhibition of factor XIIa: kinetics of hydrolysis of chromogenic substrate S2302. The following applies: for inhibition at 30 µM: read-out: Inhibition Activity at 30 µM, %; for Selectivity for factor XIIa over coagulation factors Xa and XIa: from IC50 values of Figure 5; for IC50: substrate S2302, competitive inhibitor fit. The class given is biochemical. On the procedure: (§1) The inhibition of factor XIIa by the synthesized compounds was studied by measuring the kinetics of hydrolysis of specific substrate S2302 (Chromogenics, Italy) in the presence of these compounds. A buffer containing 140 mM NaCl, 20 mM HEPES and 0.1% PEG 6000 (pH 7.4) was placed in the wells of a 96-well plate, followed by the addition of factor XIIa (final concentration 5 nM), solution of the test compound in DMSO (final concentration 30 μM), and substrate S2302 (Chromogenics, Italy) (final concentration 200 μM). The DMSO content in the well was no more than 2%. The kinetics of the formation of pNa were measured using a THERMOmax Microplate Reader (Molecular Devices Corporation, USA) by the absorption of light with a wavelength of 405 nm. The initial rate of substrate degradation was determined from the initial slope of the pNa formation curve. The rate of substrate degradation by the enzyme in the presence of the inhibitor was expressed as a percentage relative to the rate of substrate degradation in the absence of the inhibitor. The data obtained were processed using the GraphPad Prism and OriginPro 8 software. Ratio of specific substrate cleavage (S2302 for factor XIIa and S2765 for factor Xa) rate in presence of different inhibitor concentrations to these and the cleavage rate without inhibitor were determined to calculate IC50 values. Received curves (see Figures S18–S22) were approximated with the assumption that these were competitive inhibitors.

Test [2] deals with factor Xa (Homo sapiens, UniProt P00742). Nature of the test: Inhibition of factor Xa: cleavage rate of specific substrate S2765. The class given is biochemical. The conditions noted are these: >30 = no activity at 30 µM, IC50 not measured. As for the experimental part:
as §1
(§2) Figure 5 Structures of four identified inhibitors of the coagulation factor XIIa. IC50 values are shown for three coagulation factors: Xa, XIa, and XIIa. […] So, they are marked with ‘>30’ in a column with activity values. TEXT PRINTED IN THE PICTURE: 30901: IC50, μM: XIIa 19.67±1.31; IC50, μM: XIa > 30.00; IC50, μM: Xa 12.40±0.38 | 41453: IC50, μM: XIIa 25.88±1.77; IC50, μM: XIa > 30.00; IC50, μM: Xa > 30.00 | 225006: IC50, μM: XIIa 7.85±0.34; IC50, μM: XIa > 30.00; IC50, μM: Xa > 30.00 | 225738: IC50, μM: XIIa 12.95±0.32; IC50, μM: XIa > 30.00; IC50, μM: Xa > 30.00

Test [3] concerns the target factor XIa (Homo sapiens, UniProt P03951). The test is described as follows: Inhibition of factor XIa (off-target selectivity testing). The class given is biochemical. The conditions noted are these: >30 = no activity at 30 µM, IC50 not measured. On the procedure: At the first stage, virtual screening based on docking was carried out by the SOL program and the subsequent calculation of the enthalpy of protein–ligand binding by the PM7+COSMO method for the focused library of compounds selected from the database of druglike substances of the Department of Organic Chemistry of the Voronezh State University (VSU). This library consisted of 59 compounds, which were all previously tested against coagulation factors Xa and XIa. Among them, there were a few confirmed inhibitors of these proteins with micromolar activity. The presence of inhibition data for these off-targets allowed us to use selectivity data after the screening phase and better understand the quality of the identified hit series. Screening and testing the selected compounds from the focused library also helped clarify the threshold values of the scoring function of the SOL program, the binding enthalpy and, accordingly, adjust the screening process for further iterations.Virtual screening with the SOL program was carried out for 326 three-dimensional molecules. The original base of 59 ligands was expanded taking into account a few protomers, isomers, and conformers of these molecules. At the first stage, the selection of compounds was carried out based on the SOL scoring function. […] Note that the SOL scoring value for the docking of the original ligand (PDB ID 6B74) was −5.19 kcal/mol. Thus, the selection criterion covered a wider range of scoring values.
as §2

For test [4], the target named is T1, factor XIIa. The following applies: read-out: IC50 factor XIIa (aminotriazole-based inhibitors); cited from earlier work.
The mark [5] stands for this setting: % of enzyme inhibition at 30 µM, averaged over three measurements.

Where “and” joins values, the source holds several entries; their conditions need not be identical. Equal entries are not always repeated. Where two headings read alike, the source gives them in different places.

Chain of factor Xa (P00742 235-488 limits assumed): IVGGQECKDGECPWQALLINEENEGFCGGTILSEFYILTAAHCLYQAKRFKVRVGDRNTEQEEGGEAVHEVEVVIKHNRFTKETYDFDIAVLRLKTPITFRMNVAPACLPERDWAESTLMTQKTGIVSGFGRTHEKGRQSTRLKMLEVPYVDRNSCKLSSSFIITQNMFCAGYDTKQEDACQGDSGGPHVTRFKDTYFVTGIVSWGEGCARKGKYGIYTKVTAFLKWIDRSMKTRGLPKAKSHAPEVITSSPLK
Chain of factor Xa (P00742 41-179 partner limits assumed): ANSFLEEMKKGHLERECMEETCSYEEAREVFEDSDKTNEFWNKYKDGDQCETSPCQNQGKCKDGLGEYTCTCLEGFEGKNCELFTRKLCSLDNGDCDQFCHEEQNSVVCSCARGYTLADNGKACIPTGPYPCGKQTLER
T1 sequence (P00748 373-615 limits assumed, other chains not shown): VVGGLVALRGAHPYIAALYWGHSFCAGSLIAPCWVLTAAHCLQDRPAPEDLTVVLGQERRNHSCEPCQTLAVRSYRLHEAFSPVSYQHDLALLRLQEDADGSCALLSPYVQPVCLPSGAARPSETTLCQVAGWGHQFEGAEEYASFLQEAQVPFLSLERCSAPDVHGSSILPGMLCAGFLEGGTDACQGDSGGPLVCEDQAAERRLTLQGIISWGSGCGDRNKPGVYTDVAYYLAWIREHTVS
Chain of factor XIa (P03951 388-625 limits assumed): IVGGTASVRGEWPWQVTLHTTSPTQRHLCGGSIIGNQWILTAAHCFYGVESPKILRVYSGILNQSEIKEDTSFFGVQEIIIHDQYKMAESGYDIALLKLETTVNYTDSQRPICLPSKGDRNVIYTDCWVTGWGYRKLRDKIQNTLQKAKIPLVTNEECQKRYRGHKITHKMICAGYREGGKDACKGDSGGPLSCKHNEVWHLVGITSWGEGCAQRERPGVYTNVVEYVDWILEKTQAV
Chain of factor XIa (P03951 19-387 partner limits assumed): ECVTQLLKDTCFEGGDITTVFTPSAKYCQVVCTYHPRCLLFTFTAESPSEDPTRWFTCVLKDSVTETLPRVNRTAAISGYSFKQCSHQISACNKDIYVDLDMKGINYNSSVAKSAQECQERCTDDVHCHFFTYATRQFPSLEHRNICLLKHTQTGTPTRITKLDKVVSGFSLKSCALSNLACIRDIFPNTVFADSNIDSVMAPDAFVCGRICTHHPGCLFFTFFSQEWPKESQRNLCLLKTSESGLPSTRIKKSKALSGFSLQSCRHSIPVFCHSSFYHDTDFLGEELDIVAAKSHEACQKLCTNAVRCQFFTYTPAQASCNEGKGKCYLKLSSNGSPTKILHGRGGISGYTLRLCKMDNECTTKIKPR

Consider `COc1cc2c3c(c1)/C(=N/OC(=O)c1ccccc1)C(=O)N3C(C)(C)C=C2C` [compound 225746, 8-Methoxy-4,4,6-trimethyl-4H-pyrrolo[3,2,1-ij]quinoline-1,2-dione1-(O-benzoyloxime)], for which, in test [1] (setting [5]), the inhibition at 30 µM is 0%.
On the same count and under the same terms, next, `CCc1cc2c3c(c1)C1(C(=O)N3C(C)(C)CC2C)C(C#N)=C(N)Oc2c1c(=O)[nH]c1ccccc21` (centres unmarked) [compound 38292, 2-Amino-8’-ethyl-4’,4’,6’-trimethyl-2’,5-dioxo-5,5’,6,6’-tetrahydro-4’H-spiro[pyrano[3,2-c]quinoline-4,1’-pyrrolo[3,2,1-ij]quinoline]-3-carbonitrile]: 10%; `COc1ccc(C2C(C#N)=C(N)Oc3c2c(=O)[nH]c2ccccc32)cc1OC` (centres unmarked) [compound 38756, 2-Amino-4-(3,4-dimethoxyphenyl)-5-oxo-5,6-dihydro-4H-pyrano[3,2-c]quinoline-3-carbonitrile]: 15%.
On to `CC1(C)CC2(CCCCC2)N2C(=O)C3(NCCc4c3[nH]c3ccccc43)c3cccc1c32` (stereo not drawn) [compound 41453, 6’,6’-Dimethyl-2,3,4,5’,6’,9-hexahydrodispiro[β-carboline-1,1’-pyrrolo[3,2,1-ij]quinoline-4’,1’’-cyclohexan]-2’-one], for which the IC50 in test [2] was more than 30 µM; in test [3], more than 30 µM; in test [1], ~26 µM and 25.9 µM. Further, the “Selectivity for factor XIIa over coagulation factors Xa and XIa” value (“Selectivity for factor XIIa” below) in test [1] is listed as “questionable”.
As to `Nc1c2c(nc3oc(-c4ccccc4Cl)cc13)CCCC2=O` [compound 224533, 4-Amino-2-(2-chlorophenyl)-7,8-dihydrofuro[2,3-b]quinolin-5(6H)-one], the inhibition at 30 µM in test [1] was found to be 2%.
Take `COC(=O)c1c(C)[nH]c(-c2ccccc2)c1C1C(=O)N2c3c(cc(OC)cc31)C(C)=CC2(C)C` (centres unmarked) [compound 225738, methyl 4-(8-methoxy-4,4,6-trimethyl-2-oxo-1,2-dihydro-4H-pyrrolo[3,2,1-ij]quinolin-1-yl)-2-methyl-5-phenyl-1H-pyrrole-3-carboxylate]: the 50% inhibitory concentration (IC50) in test [2] was more than 30 µM; in test [3] it was more than 30 µM; in test [1], 13 ± 0.32 µM. The inhibition at 30 µM in test [1] (setting [5]) is more than 50%. In test [1], the “Selectivity for factor XIIa” value is “selectively inhibit”.
On to `CC1CCc2nc3oc(-c4ccccc4)cc3c(N)c2C1` (centres unmarked) [compound 224530, 6-Methyl-2-phenyl-5,6,7,8-tetrahydrofuro[2,3-b]quinolin-4-amine], for which the inhibition at 30 µM in test [1] (setting [5]) amounted to 0%.
Take `COc1cc2c3c(c1)C1(C(=O)N3C(C)(C)CC2C)C(C#N)=C(N)Oc2c1c(=O)oc1ccccc21` (centres unmarked) [compound 30901, 2-amino-8’-methoxy-4’,4’,6’-trimethyl-2’,5-dioxo-5’,6’-dihydro-2’H,4’H,5H-spiro[pyrano[3,2-c]chromene-4,1’-pyrrolo[3,2,1-ij]quinoline]-3-carbonitrile]: the concentration for half-maximal inhibition (IC50) in test [2] is 12.4 ± 0.38 µM; in test [3], more than 30 µM; in test [1] it was 19.7 ± 1.31 µM.
For the molecule `COc1ccc(C(=O)c2cc3cc4c(cc3oc2=O)N(C)C(C)(C)CC4C)cc1` (centres unmarked) [compound 224870, 3-(4-Methoxybenzoyl)-6,8,8,9-tetramethyl-6,7,8,9-tetrahydro-2H-pyrano[3,2-g]quinolin-2-one], the inhibition at 30 µM in test [1] (setting [5]) came to 0%.
Same read-out and setting: with `COc1cc2c3c(c1)C(=NNC(=N)N)C(=O)N3C(C)(C)C=C2C` [compound 225635, 2-(8-Methoxy-4,4,6-trimethyl-2-oxo-4H-pyrrolo[3,2,1-ij]quinolin-1(2H)-ylidene)hydrazinecarboximidamide] the figure was 0%.
`Nc1nc(-c2cnc3ccccc3n2)nn1C(=O)c1cccc2ccccc12` [aminotriazole_39b]: in test [4], the IC50 was 0.007 µM.
With `CC1CC(C)(C)N(C)c2cc3oc(=O)c(-c4cc(=O)[nH]c(N5CCOCC5)n4)cc3cc21` (centres unmarked) [compound 225006, 6,8,8,9-Tetramethyl-3-(2-morpholin-4-yl-6-oxo-1,6-dihydropyrimidin-4-yl)-6,7,8,9-tetrahydro-2H-pyrano[3,2-g]quinolin-2-one], the IC50 in test [2] is more than 30 µM; in test [3], more than 30 µM; in test [1], 7.9 µM and 7.85 µM. Further, the inhibition at 30 µM in test [1] (setting [5]) was more than 50%. Also, the “Selectivity for factor XIIa” value in test [1] was “selectively inhibit”.
Regarding `COc1cc2c3c(c1)C(=NNC(=N)N)C(=O)N3C(C)(C)C=C2CN1CCN(c2ccc(F)cc2)CC1` [compound 225638, 2-[6-{[4-(4-Fluorophenyl)piperazin-1-yl]methyl}-8-methoxy-4,4-dimethyl-2-oxo-4H-pyrrolo[3,2,1-ij]quinolin-1(2H)-ylidene]hydrazinecarboximidamide], in test [1] (setting [5]), the inhibition at 30 µM came to 27%.

As usually defined, the inhibition is the relative decrease from the control value, in per cent. A word on the IC50: it is the concentration needed to halve the response being measured.
